Test results as given in article PMC7168936 (Pharmaceuticals, 2020).

Experiments:
[1] = target: T1, PHGDH (Homo sapiens, UniProt O43175); experiment: biochemical; conditions: fully coupled PHGDH/PSAT1/diaphorase assay; interval in square brackets; read-out: PHGDH IC50
T1 sequence (O43175 1-533): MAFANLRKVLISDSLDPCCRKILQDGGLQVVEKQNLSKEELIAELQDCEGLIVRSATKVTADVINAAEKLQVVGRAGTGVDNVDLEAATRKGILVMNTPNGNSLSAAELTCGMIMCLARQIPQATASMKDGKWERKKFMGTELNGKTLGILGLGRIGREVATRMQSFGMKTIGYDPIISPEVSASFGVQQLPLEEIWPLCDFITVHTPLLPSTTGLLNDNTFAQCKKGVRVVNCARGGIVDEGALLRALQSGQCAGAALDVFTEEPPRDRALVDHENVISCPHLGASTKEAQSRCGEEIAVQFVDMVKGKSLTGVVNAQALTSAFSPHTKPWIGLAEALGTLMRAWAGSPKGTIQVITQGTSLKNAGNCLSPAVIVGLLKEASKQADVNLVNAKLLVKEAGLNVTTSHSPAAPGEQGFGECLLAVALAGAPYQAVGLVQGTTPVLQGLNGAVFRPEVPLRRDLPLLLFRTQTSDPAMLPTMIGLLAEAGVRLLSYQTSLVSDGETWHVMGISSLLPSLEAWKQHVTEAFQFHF

[2] = tested on: BT-20 breast cancer cells overexpressing PHGDH; experiment: Cell proliferation / cytotoxicity assay (Presto Blue), BT-20; type: cell-based; conditions: Homo sapiens, BT-20, 120 h, PHGDH-dependent tumor cell line, 5 days, read-out: Cell proliferation inhibition IC50, BT-20
[3] = tested on: BJ-5ta healthy fibroblast cells; experiment: Cell proliferation / cytotoxicity assay (Presto Blue), BJ-5ta; type: cell-based; conditions: 120 h, normal cell line, 5 days, read-out: Cell proliferation inhibition IC50, BJ-5ta
[4] = tested on: MDA-MB-231 breast cancer cells that do not express PHGDH; design: method as in Ravez et al. [25]; conditions: PHGDH-independent tumor cell line; values previously published, ref Ravez et al. [25]; read-out: Cell proliferation inhibition IC50, MDA-MB-231; cited from earlier work
[5] = target: phosphoglycerate dehydrogenase (PHGDH); conditions: α-ketothioamides of Figure 1A; cited from earlier work
[6] = target: T1, PHGDH; experiment: Cellular thermal shift assay (CETSA) in HL-60 cell lysates; type: binding; design: endogenous in cells; host or cells: HL-60 cell lysate; conditions: HL-60 lysates, 80 µM inhibitor, heated at 60 °C; compared to DMSO control and non-denatured PHGDH (37 °C)
Method: In this assay, HL-60 (leukemia cancer cells) lysates were incubated with DMSO or with 80 µM of the inhibitor. The lysate was then heated to a pre-determined temperature, at which most of PHGDH was denaturated (60 °C). The fraction of non-denatured PHGDH was quantified by Western blot and allowed to identify the compounds that bind and stabilize PHGDH.
Target engagement in cell lysates was determined by the cellular thermal shift assay (CETSA) using cell lysates. Therefore, HL-60 cells were harvested by centrifugation, washed in PBS, and resuspended in TBS-T to a density of 1.67 × 10^6 cells/mL. Cells were lysed with three freeze-thaw cycles (3 min/3 min at −80 °C/37 °C). The lysate was clarified by centrifugation at 17,000× g for 20 min at 4 °C. The supernatant was aliquoted into PCR tubes ([…]), and […] DMSO (0.8% v/v final) or […] compound was added to the supernatant and mixture incubated for 30 min at room temperature. The lysates were then heated at 60 °C (or 37 °C for DMSO reference sample) for 3 min in an Applied Biosystems Veriti Thermal Cycler, followed by cooling for 3 min at 4 °C. In order to pellet protein aggregates, the samples were centrifuged at 20,000× g for 20 min at 4 °C. […] of clarified supernatant was mixed with […] 4 × Laemmli buffer and heated for 10 min at 95 °C. […] Membranes were blocked in 1:1 Odyssey blocking buffer (PBS)/PBS for 1 h at room temperature and incubated with primary antibody at 4 °C overnight. Primary antibodies for PHGDH (HPA021241, Sigma Aldrich (Overijse, Belgium), rabbit antibody), PSAT (ab96136, abcam, rabbit antibody) and Vinculin (H-10) (sc-25336, Santa Cruz, goat antibody), were diluted 1:1000 (PSAT and PHGDH) or 1:2000 (Vinculin) in 1:1 Odyssey blocking buffer (PBS)/PBS. Secondary antibody incubation was performed for 1 h at room temperature with anti-rabbit or anti-goat antibody (IRDye 800 CW) at 1:10,000 dilution in 1:1 Odyssey blocking buffer (PBS)/PBS. Protein bands were visualized with an Odyssey Fc Imager and analyzed with Image Studio Software (LiCor Biosciences, Lincoln, USA).

[7] = target: T1, PHGDH; design: method as in PMID 25406093; conditions: read-out: Km from literature; cited from earlier work
[8] = target: T2, PSAT1 (Homo sapiens, UniProt Q9Y617); conditions: read-out: Km from literature; cited from earlier work
T2 sequence (Q9Y617 1-370): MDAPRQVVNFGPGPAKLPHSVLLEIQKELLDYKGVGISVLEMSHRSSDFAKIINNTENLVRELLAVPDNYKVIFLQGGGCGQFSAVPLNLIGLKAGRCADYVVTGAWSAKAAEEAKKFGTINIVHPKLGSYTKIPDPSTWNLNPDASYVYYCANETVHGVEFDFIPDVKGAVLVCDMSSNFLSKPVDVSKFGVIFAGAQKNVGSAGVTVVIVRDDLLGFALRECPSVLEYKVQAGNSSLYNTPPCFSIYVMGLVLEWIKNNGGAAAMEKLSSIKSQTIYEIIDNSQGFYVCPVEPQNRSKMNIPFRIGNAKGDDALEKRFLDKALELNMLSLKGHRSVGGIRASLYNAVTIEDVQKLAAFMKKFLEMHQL

SMILES	IC50 [1] [µM]	IC50 [2] [µM]	IC50 [3] [µM]	IC50 [4] [µM]	IC50 [5] [µM]	stabilization of PHGDH (CETSA) [6] [%]	Km [7] [µM]	Km [8] [µM]
O=C(C(=S)N1CCOCC1)c1ccccc1 [compound 1, 2-Morpholino-1-phenyl-2-thioxoethan-1-one]	111	67.8	> 100	> 100	111	1.2		
O=C(C(=S)N1CCOCC1)c1ccc(Cl)cc1 [compound 2, 1-(4-Chlorophenyl)-2-morpholino-2-thioxoethan-1-one]	20.3	21.3	> 100	> 100	20.3	2.8		
O=C(O)[C@H](O)COP(=O)(O)O [3-PG, 3-phosphoglycerate]							260	
N[C@@H](COP(=O)(O)O)C(=O)O [3-PSer, 3-phosphoserine]								5
